This is an account of results in patent publication US20070249623A1, “1-(Indole-6-Carbonyl-D-Phenylglycinyl)-4-(1-Methylpiperidin-4-Yl)Piperazine D-Tartrate” (Eli Lilly and Company Patent Division, priority 2004, published 2007).

SMILES strings stand for the structures. Like-named read-outs stand apart in the source and are kept apart here.

The target in one data set is Factor Xa (Homo sapiens, UniProt P00742). Conditions: as disclosed in WO 00/76971; cited from earlier work.
A short description of another data set: equilibrium solubility. In kind it is physicochemical. Conditions: thermodynamic from solid, 25° C., measured as the free base.
Data set [1] in a line: moisture sorption isotherm (vacuum microbalance). The format is physicochemical. Conditions: ambient temperature, once the dihydrate had been formed. As to the method:
A moisture sorption isotherm of the D-tartrate crystals was also determined using a vacuum microbalance, with a 40° C. drying step prior to initial data collection. With the initial drying step, an initial 6% weight loss was observed, consistent with the removal of the waters of crystallization. As the relative humidity was increased, the sample resorbed water, with rehydration being completed when the relative humidity reached about 20%.

Data set [2] in a line: solid form stability at high relative humidity and in aqueous suspension. The format is physicochemical. The text has this: Salts of 1-(indole-6-carbonyl-D-phenylglycinyl)-4-(1-methylpiperidin-4-yl)piperazine that form crystalline solids are disclosed in Examples 48a (hydrochloride salt) and 48b (difumarate salt) of WO 01/96323. […] Thus, the form disclosed in WO 02/100847 as Form 1 is obtained as thin needles. The thin needle morphology has disadvantages for formulation, however, because of, inter alia, clustering and low bulk density. […] The form disclosed in WO 02/100847 as Form 2 has the disadvantage, inter alia, that the particle size is very small, resulting in extremely slow filtration.

Sequence of Factor Xa (P00742 235-488 limits assumed): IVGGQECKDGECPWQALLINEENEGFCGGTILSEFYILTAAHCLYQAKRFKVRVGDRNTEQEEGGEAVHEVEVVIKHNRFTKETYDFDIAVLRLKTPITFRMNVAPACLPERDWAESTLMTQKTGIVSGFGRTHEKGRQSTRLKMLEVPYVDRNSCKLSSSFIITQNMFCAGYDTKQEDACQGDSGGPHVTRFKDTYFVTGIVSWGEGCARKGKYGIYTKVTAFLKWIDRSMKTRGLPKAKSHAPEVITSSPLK
Sequence of Factor Xa (P00742 41-179 partner limits assumed): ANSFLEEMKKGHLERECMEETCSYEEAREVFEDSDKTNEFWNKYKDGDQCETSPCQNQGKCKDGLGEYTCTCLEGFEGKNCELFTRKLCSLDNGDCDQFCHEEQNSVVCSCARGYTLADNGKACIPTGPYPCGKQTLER

As for `CN1CCC(N2CCN(C(=O)[C@H](NC(=O)c3ccc4cc[nH]c4c3)c3ccccc3)CC2)CC1` [1-(indole-6-carbonyl-D-phenylglycinyl)-4-(1-methylpiperidin-4-yl)-piperazine], the “inhibition of Factor Xa” value at Factor Xa was “potent and selective inhibitor of Factor Xa”.
As to `CN1CCC(N2CCN(C(=O)[C@H](NC(=O)c3ccc4cc[nH]c4c3)c3ccccc3)CC2)CC1.O.O.O=C(O)C(O)C(O)C(=O)O` [D-tartrate crystals, 1-(Indole-6-carbonyl-D-phenylglycinyl)-4-(1-methylpiperidin-4-yl)piperazine D-Tartrate Dihydrate], the solubility thermodynamic in “equilibrium solubility” (simulated gastric fluid, 0.01 M HCl, read-out: equilibrium solubility in 0.01 M HCl) is not below 125 mg/mL; in the data set “equilibrium solubility” (water, read-out: equilibrium solubility in water) it was not below 126 mg/mL. In addition, the “stability of the dihydrate to relative humidity” value in data set [1] is “remained stable between 5 and 95% relative humidity”.
For `CN1CCC(N2CCN(C(=O)[C@H](NC(=O)c3ccc4cc[nH]c4c3)c3ccccc3)CC2)CC1.O=C(O)/C=C/C(=O)O.O=C(O)/C=C/C(=O)O` [Form 1], the “form conversion under extremely high relative humidity” value in data set [2] (above 80% relative humidity) was “convert to a different (higher) hydrate”. Further, in data set [2] (aqueous suspensions), the “form conversion in aqueous suspensions” value is given as “convert into the form disclosed in WO 02/100847 as Form 2”.
